This is an account of results in patent EP1025226B1, “DNA ENCODING A HUMAN PROTON-GATED ION CHANNEL AND USES THEREOF” (McGill University, priority 1997, dated 1999).

Assay [1] addresses hASIC3 (human non-inactivating amiloride-sensitive proton-gated ion channel subunit) (human). The assay can be described thus: cell-based or functional assay.
Assay [2] deals with rat P2x2 (ATP-gated ion channel subunit) (rat) (UniProt P49653). The assay can be described thus: cell-based or functional assay.
The target of assay [3] is T1, human non-inactivating proton-gated ion channel hASIC3 (homomeric channels), SEQ ID No. 2 (Homo sapiens, UniProt Q9UHC3).
T1 sequence (Q9UHC3 1-531): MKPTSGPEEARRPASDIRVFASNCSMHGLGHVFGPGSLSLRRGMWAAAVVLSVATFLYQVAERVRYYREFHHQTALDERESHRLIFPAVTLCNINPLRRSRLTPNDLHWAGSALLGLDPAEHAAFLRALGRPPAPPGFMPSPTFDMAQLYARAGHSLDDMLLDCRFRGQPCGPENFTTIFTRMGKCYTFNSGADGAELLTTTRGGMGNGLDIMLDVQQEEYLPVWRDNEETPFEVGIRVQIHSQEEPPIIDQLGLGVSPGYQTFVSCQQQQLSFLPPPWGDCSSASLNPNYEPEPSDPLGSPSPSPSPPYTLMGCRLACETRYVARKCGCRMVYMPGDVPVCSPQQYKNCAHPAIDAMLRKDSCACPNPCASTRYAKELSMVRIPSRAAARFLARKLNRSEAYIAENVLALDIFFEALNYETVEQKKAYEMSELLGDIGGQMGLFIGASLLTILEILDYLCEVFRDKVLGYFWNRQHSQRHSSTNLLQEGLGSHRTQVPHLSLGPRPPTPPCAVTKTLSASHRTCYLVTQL
Briefly: Two-electrode voltage clamp of proton-induced currents in Xenopus oocytes expressing the channel. The class given is cell-based. As to conditions: for remaining activity at 100 µM: 100 µM amiloride, currents activated by pH 4.0, mean +/- SEM (n= 17); for inhibition at 100 µM: co-application of 100 micro M amiloride with pH 4.0, biphasic response, hASIC3 in Xenopus oocytes. How it is done: Oocytes surgically removed from adult Xenopus laevis were treated for 2 h at room temperature with type II collagenase (Gibco-BRL) in Barth's solution under constant agitation. Selected oocytes at stage IV-V were defolliculated manually before nuclear micro-injections (Bertrand et al., 1991) of 5 ng of hASlC3 in pcDNA3 vector. After 2-4 days of expression at 19^-C in Barth's solution containing 50Êg/ml gentamycin, currents were recorded in the two-electrode voltage clamp configuration using an OC-725B amplifier (Warner Instruments). Whole cell currents were acquired and digitized at 500 Hz on a Macintosh IIci computer with an A/D NB-MIO16XL interface (National Instruments) then recorded traces were post-filtered at 100 Hz in Axograph (Axon Instruments). Agonist, amiloride and wash solutions were prepared in a modified Ringer's solution containing 115 mM NaCl, 2.5 mM KCI, 1.8 mM CaCl2 in 5-20 mM HEPES (Sigma) buffer adjusted with NaOH or HCl at pH 2 to 8 and applied on oocytes by constant perfusion (10-12 ml/min) at room temperature. Mean values ± SEM corresponded to measurements from a minimum of 5 oocytes.

Read-outs that look alike come from different tables or passages of the source.

Chain of rat P2x2 (ATP-gated ion channel subunit) (rat) (P49653 whole entry): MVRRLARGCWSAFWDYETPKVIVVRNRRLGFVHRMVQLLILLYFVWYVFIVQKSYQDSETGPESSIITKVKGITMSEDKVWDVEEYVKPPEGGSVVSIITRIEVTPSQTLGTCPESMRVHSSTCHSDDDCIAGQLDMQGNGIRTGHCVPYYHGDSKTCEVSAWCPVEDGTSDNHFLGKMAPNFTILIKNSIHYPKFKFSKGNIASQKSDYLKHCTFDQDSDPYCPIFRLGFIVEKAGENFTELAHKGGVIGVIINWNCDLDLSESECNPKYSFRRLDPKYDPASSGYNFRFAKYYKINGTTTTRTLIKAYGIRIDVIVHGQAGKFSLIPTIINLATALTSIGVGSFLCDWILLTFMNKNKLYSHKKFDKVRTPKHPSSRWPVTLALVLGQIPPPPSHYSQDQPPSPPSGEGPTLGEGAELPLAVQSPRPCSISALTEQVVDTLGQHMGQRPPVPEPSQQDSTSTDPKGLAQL

In the case of “hASIC3 (human non-inactivating amiloride-sensitive proton-gated ion channel subunit)”, the non-inactivating cationic current induced by strong acid in Xenopus oocytes injected with the hASIC3 clone alone in assay [1] came out at 4 pH. In assay [2], this compound displayed an inward currents in Xenopus oocytes coinjected with hASIC3 and P2x2 (two-electrode voltage clamp), activating pH of 6.5 pH; a non-inactivating cation current induced by weak acid in Xenopus oocytes coinjected with hASIC3 clone and rat P2x2 clone of 6.5 pH.

`N=C(N)NC(=O)c1nc(Cl)c(N)nc1N` [amiloride]: the remaining activity at 100 µM is 37.2 ± 6.4% in assay [3] (read-out: residual peak currents during amiloride application, fast component, expressed as percent of controls) and 72 ± 3.8% in assay [3] (read-out: residual peak currents during amiloride application, sustained component, expressed as percent of controls). Moreover, the figures for the inhibition at 100 µM in assay [3] (read-out: blockade of the fast current by amiloride) and in assay [3] (read-out: blockade of the slow current by amiloride) were 62.8 ± 6.5% and 28.7 ± 4.6%, respectively.
